Assay results as given in patent US9879049B2, “Glycopeptide antibiotic analogs effective against vancomycin-resistant bacterial strains” (The Scripps Research Institute, priority 2011, dated 2018).
≈ marks a conversion by molar mass, not a printed value. Like-named read-outs stand apart in the source and are kept apart here.

Experiments:
[1] = tested on: sensitive bacterial strains; experiment: Activity against sensitive bacterial strains; type: cell-based; details: read-out: MIC against sensitive bacterial strains
N,N′-Ac2-Lys-D-Ala-D-Ala = experiment: Titration binding assay (UV difference) with model D-Ala-D-Ala ligand; details: for ligand, Ka, 6, X = NH: model ligand 6 (D-Ala-D-Ala), 0.02 M sodium citrate buffer pH 5.1; for Ka(6/7): ratio of Ka for ligand 6 (D-Ala-D-Ala) to ligand 7 (D-Ala-D-Lac)
Method: (§1) The binding constants for compounds 6 and 8 for association with the model ligands N,N′-Ac2-Lys-D-Ala-D-Ala (2) and N,N′-Ac2-Lys-D-Ala-D-Lac (4) were determined according to literature protocol.^30 UV difference measurements were carried out on a CARY 3E UV-Vis spectrometer. UV scans were run with a baseline correction that consisted of 0.02 M sodium citrate buffer (pH=5.1) and covered the range from 200 to 345 nm. A solution of 6 or 8 (7.7×10^−5M in 0.02 M sodium citrate buffer) was placed into a quartz UV cuvette (0.1 cm path length) and the UV spectrum recorded versus a reference cell containing 0.02 M sodium citrate buffer. UV spectra were recorded after each addition of a solution of N,N′-Ac2-Lys-D-Ala-D-Ala (2) or N,N′-Ac2-Lys-D-Ala-D-Lac (4) in 0.02 M sodium citrate buffer to each cell from 0.1 to 60.0 equivalents. The absorbance value at the λmax was recorded and the running change in absorbance, ΔAx equiv (Ainitial−Ax equiv), measured. The number of ligand equivalents was plotted versus ΔA to afford the ligand binding titration curve. The break point of this curve is the saturation point of the system and its xy coordinates were determined by establishing the intersection of the linear fits of the pre- and post-saturation curves. ΔAsaturation was calculated and employed to determine the concentration of free ligand in solution at each titration point. ΔA was plotted versus ΔA/free ligand concentration to give a Scatchard plot from which the binding constants were determined.
(§2) Titration Binding Assays with Model D-Ala-D-Ala and D-Ala-D-Lac Ligands 6 and 7.
(§3) The binding constants for all compounds for association with the model ligands N,N′-Ac2-Lys-D-Ala-D-Ala (6) and N,N′-Ac2-Lys-D-Ala-D-Lac (7) were determined according to literature protocol. UV difference experiments were carried out on a CARY 3E UV-Vis spectrometer. UV scans were run with a baseline correction that consisted of 0.02 M sodium citrate buffer (pH=5.1) and covered a range from 200 to 345 nm. A solution of the vancomycin aglycon derivative (7.7×10^−5 M in 0.02 M sodium citrate buffer) was placed into a quartz UV cuvette (0.1 cm path length) and the UV spectrum recorded versus a reference cell containing 0.02 M sodium citrate buffer. UV spectra were recorded after each addition of a solution of N,N′-Ac2-Lys-D-Ala-D-Ala (6) or N,N′-Ac2-Lys-D-Ala-D-Lac (7) in 0.02 M sodium citrate buffer to each cell from 0.1 to 60.0 equivalents. The absorbance value at the λmax was recorded and the running change in absorbance, ΔAx equiv (Ainitial−Ax equiv), measured. The number of ligand equivalents was plotted versus ΔA to afford the ligand binding titration curve. The break point of this curve is the saturation point of the system and its xy coordinates were determined by establishing the intersection of the linear fits of the pre and postsaturation curves. ΔAsaturation was calculated and employed to determine the concentration of free ligand in solution at each titration point. ΔA was plotted versus ΔA/free ligand concentration to give a Scatchard plot from which the binding constants were determined.

N,N′-Ac2-Lys-D-Ala-D-Lac = experiment: Titration binding assay (UV difference) with model D-Ala-D-Lac ligand; details: for ligand, Ka, 7, X = O: model ligand 7 (D-Ala-D-Lac), 0.02 M sodium citrate buffer pH 5.1
Method: Titration Binding Assays with Model D-Ala-D-Ala and D-Ala-D-Lac Ligands 2 and 4.
as §1, §2, §3

[2] = tested on: E. faecalis (BM4166, VanA VRE); experiment: MIC by broth microdilution, VanA VRE; type: cell-based; details: for MIC: Enterococcus faecalis, read-out: VanA MIC (minimum inhibitory conc.)
Method: E. faecalis (BM4166) was propagated and MIC's were determined in duplicate by the broth microdilution method according to standard microbiological practice. See: Clinical and Laboratory Standards Institute. Methods for Dilution Antimicrobial Susceptibility Tests for Bacteria That Grow Aerobically; Approved Standard, 7th ed.; CLSI document M07-A8; Clinical and Laboratory Standards Institute: Wayne, Pa., 2009. Cudic, M.; Condie, B. A.; Weiner, D. J.; Lysenko, E. S.; Xiang, Z. Q.; Insug, O.; Bulet, P.; Otvos, L., Jr.; Peptides 2002, 23, 271.
(§4) S. Aureus (ATCC 25923) and E. Faecalis (BM4166) were propagated and MICs were determined in duplicate by the broth microdilution method according to standard microbiological practice. (Clinical and Laboratory Standards Institute. Methods for Dilution Antimicrobial Susceptibility Tests for Bacteria That Grow Aerobically; Approved Standard, 7th ed.; CLSI document M07-A8; Clinical and Laboratory Standards Institute: Wayne, Pa., 2009.)

[3] = amidine group; cited from earlier work
[4] = tested on: D-Ala-D-Lac, substrate model 4 (X═O); details: cited from earlier work
[5] = tested on: substrate model 3 (X═CH2); details: substrate model 3 (X═CH2) versus model 2; cited from earlier work
[6] = tested on: Vancomycin-resistant bacteria (VanA and VanB); details: resistant bacteria with D-Ala-D-Lac precursor; cited from earlier work
S. Aureus (ATCC 25923) = experiment: MIC by broth microdilution, vancomycin-sensitive S. aureus; type: cell-based; details: Staphylococcus aureus, ATCC25923
Method: as §4

Compound: CN[C@H](CC(C)C)C(=O)N[C@H]1C(=O)N[C@@H](CC(N)=O)C(=O)N[C@H]2C(=O)N[C@H]3C(=O)N[C@H](C(=O)N[C@H](C(=O)O)c4cc(O)cc(O)c4-c4cc3ccc4O)[C@H](O)c3ccc(c(Cl)c3)Oc3cc2cc(c3O)Oc2ccc(cc2Cl)[C@H]1O [Compound 2, vancomycin aglycone, reference compound]
- MIC [1]: 0.3 to 2 µg/mL (≈ 0.262 to 1.75 µM)
- ligand, Ka, 6, X = NH (N,N′-Ac2-Lys-D-Ala-D-Ala): 170000 M⁻¹
- Ka(6/7) (N,N′-Ac2-Lys-D-Ala-D-Ala): 1400
- ligand, Ka, 7, X = O (N,N′-Ac2-Lys-D-Ala-D-Lac): 120 M⁻¹
- MIC ([2]; VRE): 640 µg/mL (≈ 559 µM)

Compound: CN[C@H](CC(C)C)C(=O)N[C@H]1C(=O)N[C@@H](CC(N)=O)C(=O)N[C@H]2C(=N)NC3C(=O)N[C@H](C(=O)N[C@H](C(=O)O)c4cc(O)cc(O)c4-c4cc3ccc4O)[C@H](O)c3ccc(c(Cl)c3)Oc3cc2cc(c3O)Oc2ccc(cc2Cl)[C@H]1O [Compound 4, [Ψ[C(═NH)NH]Tpg^4]Vancomycin Aglycon]
- ligand, Ka, 6, X = NH (N,N′-Ac2-Lys-D-Ala-D-Ala): 73000 M⁻¹
- Ka(6/7) (N,N′-Ac2-Lys-D-Ala-D-Ala): 1.05
- ligand, Ka, 7, X = O (N,N′-Ac2-Lys-D-Ala-D-Lac): 69000 M⁻¹
- pKa [3]: 12.5
- MIC ([2]; VRE): 0.31 µg/mL (≈ 0.271 µM)

Compound: CN[C@H](CC(C)C)C(=O)N[C@H]1C(=O)N[C@@H](CC(N)=O)C(=O)N[C@H]2C(=O)N[C@H]3C(=O)N[C@H](C(=O)N[C@H](C(=O)O)c4cc(O)cc(O)c4-c4cc3ccc4O)[C@H](O)c3ccc(c(Cl)c3)Oc3cc2cc(c3O[C@@H]2O[C@H](CO)[C@@H](O)[C@H](O)[C@H]2O[C@H]2C[C@](C)(N)[C@H](O)[C@H](C)O2)Oc2ccc(cc2Cl)[C@H]1O [vancomycin]
- loss in Gibbs free energy of binding ΔG° ([4]; 25° C., substrate model 4 (X═O) versus model 2): 3.1 kcal/mol
- reduction of binding affinity for the altered ligand D-Ala-D-Lac ([4]; versus D-Ala-D-Ala): 1000 fold
- free energy loss of binding [5]: about 1.5 kcal/mole
- loss in antimicrobial activity [6]: 1000 fold

Compound: CN[C@H](CC(C)C)C(=O)N[C@H]1C(=O)N[C@@H](CC(N)=O)C(=O)N[C@H]2C(=S)NC3C(=O)N[C@H](C(=O)N[C@H](C(=O)O)c4cc(O)cc(O)c4-c4cc3ccc4O)[C@H](O)c3ccc(c(Cl)c3)Oc3cc2cc(c3O)Oc2ccc(cc2Cl)[C@H]1O [Compound 5, [Ψ[C(═S)NH]Tpg^4]Vancomycin Aglycon]
- ligand, Ka, 6, X = NH (N,N′-Ac2-Lys-D-Ala-D-Ala): 170 M⁻¹
- binding to D-Ala-D-Ala (N,N′-Ac2-Lys-D-Ala-D-Ala; result in words, FIG. 3): completely disrupt binding
- ligand, Ka, 7, X = O (N,N′-Ac2-Lys-D-Ala-D-Lac): 11 M⁻¹
- binding to D-Ala-D-Lac (N,N′-Ac2-Lys-D-Ala-D-Lac; result in words, FIG. 3): completely disrupt binding
- MIC ([2]; VRE): > 640 µg/mL
- antimicrobial activity ([2]; result in words, FIG. 3): lacked any antimicrobial activity

Compound: [Ψ-[CH2NH]Tpg^4]vancomycin aglycon [Compound 3, reference compound]
- ligand, Ka, 6, X = NH (N,N′-Ac2-Lys-D-Ala-D-Ala): 4800 M⁻¹
- Ka(6/7) (N,N′-Ac2-Lys-D-Ala-D-Ala): 0.9
- ligand, Ka, 7, X = O (N,N′-Ac2-Lys-D-Ala-D-Lac): 5200 M⁻¹
- VanA MIC (minimum inhibitory conc.) ([2]; E. faecalis BM4166, VanA VRE): 31 µg/mL

Compound: CN=C1NC2C(=O)N[C@H](C(=O)N[C@H](CO)c3cc(O)cc(O)c3-c3cc2ccc3O)[C@H](O)c2ccc(c(Cl)c2)Oc2cc3cc(c2O)Oc2ccc(cc2Cl)[C@@H](O)[C@@H](NC(=O)[C@@H](CC(C)C)NC)C(=O)N[C@@H](CC(N)=O)C(=O)N[C@@H]13 [Compound 11]
- relative affinity for ligands 6 and 7 (N,N′-Ac2-Lys-D-Ala-D-Ala; D-Ala-D-Ala versus D-Ala-D-Lac, result in words): near equal affinities
- times less effective than parent amidine 10 at binding D-Ala-D-Ala ligand 6 (N,N′-Ac2-Lys-D-Ala-D-Ala; relative to 10): 30 to 50 times
- times less effective than parent amidine 10 at binding D-Ala-D-Lac ligand 7 (N,N′-Ac2-Lys-D-Ala-D-Lac; relative to 10): 30 to 50 times
- MIC ([2]; E. faecalis BM4166, VanA VRE): 20 µg/mL (≈ 17.5 µM)
- fold less potent than 10 against VanA VRE ([2]; relative to parent amidine 10): 60 fold

Compound: CN[C@H](CC(C)C)C(=O)N[C@H]1C(=O)N[C@@H](CC(N)=O)C(=O)N[C@H]2C(=NC#N)NC3C(=O)N[C@H](C(=O)N[C@H](CO)c4cc(O)cc(O)c4-c4cc3ccc4O)[C@H](O)c3ccc(c(Cl)c3)Oc3cc2cc(c3O)Oc2ccc(cc2Cl)[C@H]1O (single isomer, unassigned) [Compound 14]
- binding of D-Ala-D-Ala versus D-Ala-D-Lac (N,N′-Ac2-Lys-D-Ala-D-Ala; D-Ala-D-Ala bound more effectively than D-Ala-D-Lac): ≥ 120 fold
- affinity for D-Ala-D-Ala, fold less than parent amide 8 or amidine 10 (N,N′-Ac2-Lys-D-Ala-D-Ala; relative to 8 or 10): 20 fold
- binding of D-Ala-D-Lac (N,N′-Ac2-Lys-D-Ala-D-Lac; result in words): failed to bind
- pKa [3]: 1
- MIC ([2]; E. faecalis BM4166, VanA VRE): > 40 µg/mL
- MIC (S. Aureus (ATCC 25923)): 10 µg/mL (≈ 8.67 µM)
